Results: paper PMC10222454, “Characterization of the Molecular Diversity and Degranulation Activity of Mastoparan Family Peptides from Wasp Venoms” (Toxins, 2023)
Ends that are not written are not given here.

What was measured:
RBL-2H3 cells = type: cell-based, rat; settings: for degranulation of RBL-2H3 / mast cells, in words / Degranulation at 80 μg/mL, RBL-2H3: RBL-2H3 cells; for Degranulation at 80 μg/mL, RBL-2H3: 80 μg/mL peptide, 15 min at 37 °C, % of total β-hexosaminidase (0.1% Triton X-100 lysis); for EC50 (μg/mL), RBL-2H3 / EC50: pH 7.4
Experimental: (§1) RBL-2H3 cells (rat mucosal-type mast cell line) and P815 cells (mouse mast cell tumor cell line) were obtained from the BeNa Culture Collection (Xinyang, China). RBL-2H3 cells were cultured in DMEM (Gibco, Wuhan, China) supplemented with 15% FBS (Gibco), and P815 cells were maintained in RPMI 1640 basic medium supplemented with 10% FBS and antibiotics (100 mg/L streptomycin and 1 × 10^5 U/L penicillin) in a humidified atmosphere (5% CO2, 37 °C).
(§2) Degranulation was analyzed by measuring the release of the granule marker N-acetyl-D-glucosaminidase (β-hexosaminidase), which colocalizes with histamine, as described in [24]. For this, 2 × 10^5 P815 cells/mL or 1.5 × 10^5 RBL-2H3 cells/mL were seeded in 96-well cell culture plates. Twelve hours later, the cells were incubated with various concentrations of mastoparans dissolved in 100 μL HEPES buffer (137 mM NaCl, 2.7 mM KCl, 1 mM MgCl2, 1.8 mM CaCl2, 20 mM HEPES, 1 mg/mL BSA, and 1 mg/mL glucose, pH 7.4) for 15 min at 37 °C and 5% CO2. Then, the reactions were quenched by the addition of 0.15 mL of ice-cold HEPES buffer. After centrifugation, the supernatants were sampled for the β-hexosaminidase assay. Briefly, 50 μL samples of the cell culture supernatants and 50 μL of the substrate, 5 mM p-nitrophenyl-N-acetyl-b-D-glucosaminide (Sigma) in 0.2 M citrate, pH 4.5, were incubated in 96-well plates at 37 °C and 5% CO2 for 16–18 h to yield the chromophore p-nitrophenol, and the reactions were stopped by the addition of 100 μL of 0.2 M glycine solution, pH 10.7. The absorbance of the colored product was assessed at 405 nm using a microtiter plate reader. The values for β-hexosaminidase released in the medium are expressed as the percentage of total β-hexosaminidase, which was measured in the cells after lysis in 0.1% Triton X-100. The experiment was repeated three times, and the results represent the mean and standard deviation (SD) of quadruplicate tests. The percent degranulation was calculated according to the following equation:Degranulation Rate (%) = 100% × (Amastoparans − AHEPES)/(ATriton X-100 − AHEPES).
Statistical analysis was performed with GraphPad Prism software. The curve of mast cell degranulation induced by wasp mastoparans was generated in SigmaPlot 12.5 software, and the EC50 was calculated according to the following equation (Four-Parameter Logistic Curve): y = min + (max − min)/(1 + (x/EC50) […] Hillslope).

P815 cells = experiment: Mast cell degranulation activity (β-hexosaminidase release) in P815 cells; type: cell-based, mouse; settings: P815 cells, 80 μg/mL peptide, 15 min at 37 °C, % of total β-hexosaminidase (0.1% Triton X-100 lysis)
Experimental: as §1, §2

| Substance | degranulation of RBL-2H3 / mast cells, in words (RBL-2H3 cells) | Degranulation at 80 μg/mL, RBL-2H3 (RBL-2H3 cells) | EC50 (μg/mL), RBL-2H3 (RBL-2H3 cells) | Degranulation at 80 μg/mL, P815 (P815 cells) | EC50 (RBL-2H3 cells) |
| --- | --- | --- | --- | --- | --- |
| LNLKGLIKKVASLLN-OH [Eumenitin-R] | hardly induced mast cell degranulation | 14% | >300 µg/mL | <20% |  |
| INMKAVAAVAKKPL-NH2 [Mastoparan-VB2] | neither of them could induce the degranulation | 0% | >300 µg/mL | <20% | > 200 µM |
| LNLKGLFKKVASLLT-OH [Eumenitin-F] | hardly induced mast cell degranulation | 2% | >300 µg/mL | <20% |  |
| KDLHTVVSAILQAL-NH2 [OdVP3] |  | 5% | >300 µg/mL | <20% | > 200 µM |
| INMKASAAVAKKLL-NH2 [Mastoparan-VB1] | neither of them could induce the degranulation | −1% | >300 µg/mL | <20% | > 200 µM |
| INWHDIAIKNIDAL-NH2 [Polybia-MPV] |  | 1% | >300 µg/mL | <20% | > 200 µM |
| INWKKIAEVGGKILSSL-NH2 [Dominulin A] |  | 11% | >300 µg/mL | <20% | > 200 µM |
